Results: ChEMBL document CHEMBL6178013, “Ferroptosis of Cancer Cells via Tubulin Degradation and Mitochondrial Dysfunction: A Novel Mechanism of Anticancer Effect for Small-Molecule Anion Transporters” (J Med Chem, 2025)
Calls of active or inactive are those of the source. No cut-off for these calls is given here.

What was measured:
Chloride [1] = assay: Binding affinity to chloride anions in human HeLa cells assessed as decrease in red fluorescence in cytoplasm at 5 uM incubated for 1.5 hrs by MR-(RR)2 staining based analysis; type: cell-based
Chloride [2] = assay: Binding affinity to chloride anions assessed as anionophoric activity in egg-yolk L-alpha-phosphatidylcholine liposome model measured per lipid by pyranine-based fluorescent assay
HeLa [3] = assay: Cytotoxicity against human HeLa cells incubated for 48 hrs by MTT assay; type: functional, cell-based
Chloride [4] = assay: Binding affinity to chloride anions in human HeLa cells assessed as increase in green fluorescence in cytoplasm at 5 uM incubated for 6 hrs by AO staining based analysis; type: cell-based
Chloride [5] = assay: Binding affinity to chloride anions using tetrabutylammonium chloride salt assessed as association constant by 1H NMR spectroscopy
Chloride [6] = assay: Binding affinity to chloride anions in human HeLa cells assessed as chloride influx up to 5 uM incubated for 2 hrs by MQAE staining based analysis; type: cell-based
A549 = assay: Cytotoxicity against human A549 cells incubated for 48 hrs by MTT assay; type: functional, cell-based; details: A549, 48 h
MCF7 = assay: Cytotoxicity against human MCF7 cells incubated for 48 hrs by MTT assay; type: functional, cell-based; details: MCF7, 48 h
Liposome = assay: Disruption of egg-yolk L-alpha-phosphatidylcholine liposome model membrane assessed as calcein leakage by fluorescence based assay; type: subcellular
Chloride [7] = assay: Binding affinity to chloride anions assessed as transport of chloride anions across bulky nitrobenzene membrane in U-shaped tube harboring NaCl in donor phase and NaNO3 in receiving phase at 1 mM measured for 12 hrs by chloride ion selective electrode technique
Chloride [8] = assay: Binding affinity to chloride anions assessed as chloride efflux in egg-yolk L-alpha-phosphatidylcholine liposome model measured per lipid in presence of intravesicular NaCl/extravesicular NaNO3 by chloride ion selective electrode technique
Chloride [9] = assay: Binding affinity to chloride anions assessed as fold increase in anionophoric activity in egg-yolk L-alpha-phosphatidylcholine liposome model measured per lipid by pyranine-based fluorescent assay relative to m-Bimbe
Chloride [10] = assay: Binding affinity to chloride anions in human HeLa cells assessed as decrease in orange fluorescence in cytoplasm at 5 uM incubated for 6 hrs by AO staining based analysis relative to control; type: cell-based; set-up: scale not given: the % may be the effect or the level left
HepG2 = assay: Cytotoxicity against human HepG2 cells incubated for 48 hrs by MTT assay; type: functional, cell-based; details: HepG2, 48 h
HeLa [11] = assay: Antitumor activity against human HeLa cells xenografted in male Balb/C nude mouse assessed as average tumor size at 2 mg/kg, ip administered on every 2 days measured after 18 days (reference value: 1995.1 mm3); type: functional; details: time 18 day
[12] = Toxicity in male Balb/C nude mouse xenografted with human HeLa cells assessed as body weight change at […], ip administered on every 2 days measured after 18 days; type: organism-based; details: in vivo, 432 h, time 18 day

Row | Compound | Activity (Chloride [1]) | EC50 (Chloride [2]) | IC50 (HeLa [3]) [µM] | Activity (Chloride [4]) | Ka (Chloride [5]) | Activity (Chloride [6]) | IC50 (A549) [µM] | IC50 (MCF7) [µM] | Activity (Liposome) | Activity (Chloride [7]) | EC50 (Chloride [8]) [mol%] | fold change (FC) (Chloride [9]) | Activity (Chloride [10]) | IC50 (HepG2) [µM] | Activity (HeLa [11]) [mm3] | Activity [12]
1 | O=[N+]([O-])c1cc(-c2nc3c(C(F)(F)F)cc(C(F)(F)F)cc3[nH]2)cc(-c2nc3c(C(F)(F)F)cc(C(F)(F)F)cc3[nH]2)c1 | Active; The Result Reveals That Compound Can Alkalize Lysosomes | 5.34 10^-3mol% | 9.67 | Active; The Result Indicates That Compound Basify Acidic Organelles | 6.58 10^3/M | Active | 10.5 | 10.8 | inactive | Active | 0.02 | 1.81 10^3No_unit | 100% | 16.5 |  | 
2 | Fc1cc(-c2nc3ccc(C(F)(F)F)cc3[nH]2)cc(-c2nc3ccc(C(F)(F)F)cc3[nH]2)c1 |  | 1.54 10^-2mol% | 3.53 | Active; The Result Indicates That Compound Basify Acidic Organelles | 1.17 10^4/M |  | 4.53 | 3.17 | inactive | Active | 0.94 | 6.28 10^2No_unit | Active; The Result Indicates That Compound Basify Acidic Organelles | 1.67 |  | 
3 | FC(F)(F)c1ccc2nc(-c3cccc(-c4nc5ccc(C(F)(F)F)cc5[nH]4)c3)[nH]c2c1 |  | 9.67 mol% | 12.3 | Not active; Only Slight Activity Was Observed | 3.51 10^3/M |  | 12.8 | 10.5 | inactive | Active | > 10 |  | Not active; Only Slight Activity Was Observed | 10.6 |  | 
4 | c1cc(-c2nc3ccccc3[nH]2)cc(-c2nc3ccccc3[nH]2)c1 |  | 2.76 10^-3mol% |  |  | 1.45 10^4/M |  |  |  |  |  | 0.06 | 3.5 10^3No_unit |  |  |  | 
5 | Fc1cc(-c2nc3cc(F)c(C(F)(F)F)cc3[nH]2)cc(-c2nc3cc(F)c(C(F)(F)F)cc3[nH]2)c1 |  | 3.79 10^-2mol% | 3.9 | Active; The Result Indicates That Compound Basify Acidic Organelles | 1.01 10^3/M |  | 3.97 | 3.33 | inactive | Active | 0.2 | 2.55 10^2No_unit | Active; The Result Indicates That Compound Basify Acidic Organelles | 3.13 |  | 
6 | O=[N+]([O-])c1cc(-c2nc3ccc(C(F)(F)F)cc3[nH]2)cc(-c2nc3ccc(C(F)(F)F)cc3[nH]2)c1 | Active; The Result Reveals That Compound Can Alkalize Lysosomes | 2 10^-3mol% | 8.33 | Active; The Result Indicates That Compound Basify Acidic Organelles | 5.25 10^3/M | Active | 7.78 | 8.6 | inactive | Active | 0.3 | 4.84 10^3No_unit | Active; The Result Indicates That Compound Basify Acidic Organelles | 6.8 |  | 
7 | FC(F)(F)c1cc(C(F)(F)F)c2nc(-c3cccc(-c4nc5c(C(F)(F)F)cc(C(F)(F)F)cc5[nH]4)c3)[nH]c2c1 | Active; The Result Reveals That Compound Can Alkalize Lysosomes | 0.27 mol% | 2.84 | Active; The Result Indicates That Compound Basify Acidic Organelles | 2.93 10^4/M | Active | 1.49 | 2.4 | inactive | Active | 1.92 | 35.8 | Active; The Result Indicates That Compound Basify Acidic Organelles | 8.3 |  | 
8 | O=[N+]([O-])c1cc(-c2nc3cc(F)c(C(F)(F)F)cc3[nH]2)cc(-c2nc3cc(F)c(C(F)(F)F)cc3[nH]2)c1 | Active; The Result Reveals That Compound Can Alkalize Lysosomes | 2.37 10^-2mol% | 4.23 | Active; The Result Indicates That Compound Basify Acidic Organelles | 4.95 10^3/M | Active | 10.2 | 3.4 | inactive | Active | 0.11 | 4.08 10^2No_unit | 100% | 2.2 |  | 
9 | Fc1cc2nc(-c3cccc(-c4nc5cc(F)c(C(F)(F)F)cc5[nH]4)c3)[nH]c2cc1C(F)(F)F |  | 0.64 mol% | 18.3 | Active; The Result Indicates That Compound Basify Acidic Organelles | 6.96 10^3/M |  | 28.8 | 11.2 | inactive | Active | 4.11 | 15.1 | Active; The Result Indicates That Compound Basify Acidic Organelles | 11.2 |  | 
10 | COc1cccc2c1C(=O)c1c(O)c3c(c(O)c1C2=O)C[C@@](O)(C(=O)CO)C[C@@H]3O[C@H]1C[C@H](N)[C@H](O)[C@H](C)O1 [DOXORUBICIN] |  |  | 0.11 |  |  |  |  | 0.26 |  |  |  |  |  | 2.3 | 1093.2 | Toxic
